Reference: paper PMC4713719 (European Journal of Clinical Pharmacology, 2015)
Read-outs that look alike come from different tables or passages of the source.

Tests used:
[1] = tested on: patients with relapsed and refractory multiple myeloma; assay: Grade 3 or 4 adverse events and MTD in the B2207 trial; type: in vivo, human
Excerpt: The two combination studies, B2207 and PANORAMA-1, reported efficacy data in patients with relapsed and refractory multiple myeloma. In the current analysis, exposure–efficacy relationship was explored using the efficacy data (ORR based on IMWG criteria) from the B2207 trial.

[2] = tested on: patients with multiple myeloma; details: cited from earlier work
[3] = read-out: Projected Cmax; 20 mg oral dose used in the B2207 study
[4] = cited from earlier work
[5] = Panobinostat plasma PK in the PANORAMA-1 phase 3 trial (Japan subset); type: in vivo, human; details: PANORAMA-1 cycle 1 day 8, PAN + BTZ + Dex, N = 12
Experimental: Each phase was of 24 weeks duration with treatment phase 1 consisting of eight, 3-week cycles and treatment phase 2 consisting of four, 6-week cycles.
In this study, plasma samples for panobinostat and bortezomib were collected in a subset of Asian patients. Blood samples were taken at scheduled time points (cycle 1, day 1, and cycle 1 day 8 at pre-dose and at 0.5, 1, 2, 3, 4, 8, 24, and 48 h post-dose) for PK analysis.

[6] = 20 mg PAN single agent (tiw qw), multiple oral dose, N = 32, cited from earlier work
patients = tested on: patients; design: method as in historical single-agent studies; details: 20 mg PAN (tiw qw) single agent, pooled, N = 309, ref historical single-agent studies, cited from earlier work
[7] = cited from earlier work; remark: listed apart in the source
[8] = tested on: patients with advanced hematologic malignancies; details: panobinostat alone; cited from earlier work
CYP3A = details: strong CYP3A inhibitor, cancer patients; cited from earlier work
CYP2D6 = details: sensitive CYP2D6 substrate, cancer patients; cited from earlier work
[9] = design: method as in unpublished data; details: 20 mg panobinostat + 25 mg lenalidomide + 40 mg dexamethasone (day 1 through day 4); ref unpublished data; cited from earlier work
[10] = Panobinostat plasma PK in the B2207 phase 1b trial (LC-MS/MS, non-compartmental); details: B2207, PAN + BTZ + Dex vs historical single-agent trials
Experimental: In the dose escalation part, PK samples were collected on cycle 1, day 8, and cycle 1, day 15 at pre-dose, and various intervals post-dose up to 48 h.

[11] = patients with solid tumors; cited from earlier work
[12] = tested on: class I, II, and IV histone deacetylases; details: cited from earlier work
[13] = human, plasma, oral, geometric mean (% CV)

Compound: CC(C)C[C@H](NC(=O)[C@H](Cc1ccccc1)NC(=O)c1cnccn1)B(O)O [bortezomib]
- MTD ([1]; B2207, twice-weekly (biw), in combination with panobinostat): 1.3 mg/m^2
- Grade ≥3 diarrhea ([2]; 1.3 mg/m^2 IV bortezomib): 5%
- Grade ≥3 diarrhea ([2]; 1.3 mg/m^2 SC bortezomib): 2%

Compound: C[C@@H]1C[C@H]2[C@@H]3CCC4=CC(=O)C=C[C@]4(C)[C@@]3(F)[C@@H](O)C[C@]2(C)[C@@]1(O)C(=O)CO [dexamethasone]
- Cmax [3]: ~30 nM

Compound: Cc1[nH]c2ccccc2c1CCNCc1ccc(/C=C/C(=O)NO)cc1 [panobinostat, Panobinostat]
- MTD ([1]; B2207, tiw, in combination with bortezomib): 20 mg
- Effect of fed or fasting state on oral bioavailability [4]: marginally affected
- AUC0-24 ([5]; geometric mean (% CV)): 95.2 (28.4) ng h/mL
- Cmax [5, 13]: 15.3 ng/mL
- half-life [5, 13]: 16.7 h
- AUC(0-t) ([5]; human, plasma, oral, geometric mean (% CV), read-out: AUC0-24): 95 ng·h/mL
- Vd/F ([5]; human, plasma, oral, geometric mean (% CV), read-out: Vz/F): 3550 L
- Tmax ([5]; human, plasma, oral, median (range)): 2.02 h
- AUC0-24 ([6]; geometric mean (% CV)): 139 (71) ng h/mL
- Cmax ([6]; geometric mean (% CV)): 21.6 (83) ng/mL
- T1/2 ([6]; geometric mean (% CV)): 16.9 (33) h
- Tmax ([6]; median (range)): 1 (0.5–8) h
- Grade 3 or 4 anemia (patients): 29 (9) %
- Grade 3 or 4 diarrhea (patients): about 3%
- Grade 3 or 4 fatigue (patients): 13 (4) %
- Grade 3 or 4 nausea (patients): 6 (2) %
- Grade 3 or 4 neutropenia (patients): 42 (14) %
- Grade 3 or 4 thrombocytopenia (patients): about 21%
- Grade 3 or 4 vomiting (patients): 4 (1) %
- Grade 3 or 4 diarrhea (patients; listed as PAN): 10 (3) %
- Grade 3 or 4 thrombocytopenia (patients; listed as PAN): 66 (21) %
- Fraction of the radiolabeled dose recovered in the feces [7]: 44 to 77%
- Fraction of the radiolabeled dose recovered in the urine [7]: 29 to 51%
- Number of metabolites formed [7]: over 70
- Unchanged panobinostat in the feces, % of the administered dose [7]: < 3.5%
- Effective half-life (T1/2) ([7]; single agent, based on the rate of accumulation): approximately 16 h
- Median Tmax ([7]; single agent, oral administration): about 2 h
- Accumulation ([7]; single-agent trial): approximately 1.1 fold
- Dose linearity of pharmacokinetics ([7]; tested dose range between 10 and 30 mg): approximately linear
- Steady state reached ([7]; thrice-weekly (tiw) dosing schedule): after the third dose
- Grade ≥3 thrombocytopenia [8]: 55%
- Increase of panobinostat systemic exposure by ketoconazole (CYP3A): 80%
- Increase of dextromethorphan systemic exposure by panobinostat (CYP2D6): 60%
- Decrease in PAN exposure compared to historical single-agent data [9]: approximately 60%
- Lower panobinostat exposure at MTD in combination vs single-agent trials [10]: ~50%
- Effect of mild, moderate, or severe renal impairment on plasma exposure [11]: did not alter the plasma exposure
- Activity against histone deacetylases [12]: low nanomolar activity
